Test results: EP2990415B1, “Cyclic beta defensins analogs for the treatment of infections” (Ceinge Biotecnologie Avanzate S.C. a R.L., priority 2014, dated 2016)
pIC50: −log10 of the molar value. Bridge positions count the residues as written; N and C are the ends. Ends that are not written are not given here. Peptide text beside a SMILES is read from it.

Tests used:
[1] = system: P. aeruginosa, E. coli and E. faecalis; assay type: cell-based
Description: (§1) A CFU assay of the antibacterial activity of the peptides of the present invention against Pseudomonas aeruginosa ATCC (American Type Culture Collection, Manassas, VA, USA) 27853, Enterococcus faecalis ATCC 29212 and Escherichia coli ATCC 25922 was performed as follows. The strains were grown in aerobic conditions in tryptic soy broth (Difco Laboratories, Detroit, MI, USA) at 37°C and incubated in the presence of hBDs for 2 h at 37°C. We used two concentrations of peptides, i.e., 2.5 µM and 12.5 µM. For salt-dependence assay, 0, 50, 100 and 200 mM NaCl were included in the incubation buffer as previously described (1). Each assay was performed in triplicate. Bactericidal activity (mean and SD of three assays) is expressed as the ratio between colonies counted and the number of colonies on a control plate. The minimal inhibitory concentration (MIC) of the peptide SEQ ID No. 25 was determined with a modified version of the microbroth dilution assay of the National Committee for Clinical Laboratory Standards using a final inoculum of 10^5 CFU/ml. The following peptide concentrations were used: 100.0, 50.0, 25.0, 12.5, 6.25, 3.12 and 1.56 µM.

[2] = system: HSV-1; experiment: Inhibition of HSV infectivity on Vero cell monolayers (co-exposure, virus pre-exposure, cell pre-exposure, post-exposure); assay type: cell-based
Description: Vero cells were grown in Dulbecco's modified Eagle's medium (DMEM) supplemented with 10% fetal calf serum. HSV-1 carrying a lacZ gene driven by the cytomegalovirus (CMV) IE-1 promoter to express beta-galactosidase was propagated as described elsewhere (Galdiero S, Falanga A, Vitiello M, D'Isanto M, Cantisani M, Kampanaraki A, Benedetti E, Browne H, Galdiero M. Peptides. 2008 Sep;29(9):1461-71). All experiments were conducted in parallel with no-peptide controls. […] Non-penetrated viruses were inactivated by citrate buffer at pH 3.0. Monolayers were fixed, stained with 5-bromo-4-chloro-3-indolyl-beta-D-galactopyranoside (X-gal) and plaque numbers were scored. Experiments were performed in triplicate and the percentage of inhibition was calculated with respect to no-peptide control experiments; ii) For "virus pre-exposure" experiments, […] monolayers; iii) For "cell pre-exposure" experiments, Vero cells were incubated with 20 µM of peptides for 30 min at 4°C and infected with serial dilutions of HSV-1 for 45 min at 37°C; and iv) For "post-exposure" experiments, Vero cell monolayers were incubated with virus for 45 minutes at 37°C and afterwards the peptide was added to the inoculum followed by an additional incubation period of 30 minutes at 37°C.
The antiviral activity was evaluated in co-exposure experiments (with cell, virus, and peptide at zero time), virus pre-exposure experiments (virus plus peptide before cell infection), cell pre-exposure experiments (cell plus peptide before virus infection) and post-treatment (cell plus virus before peptide addition) in order to evaluate in which phase, if any, the peptides could inhibit virus infectivity. […] Both in the co-exposure and virus pre-treatment experiments, the oxidized SEQ. […]

[3] = system: HSV-1; conditions: reported elsewhere; cited from earlier work
[4] = system: Enterococcus faecalis ATCC 29212; assay type: cell-based; conditions: 12.5 µM
Description: as §1

[5] = system: Escherichia coli ATCC 25922; assay type: cell-based; conditions: 12.5 µM
Description: as §1

[6] = system: Pseudomonas aeruginosa ATCC 27853; assay type: cell-based; conditions: 12.5 µM
Description: as §1

## CC[C@H](C)[C@@H]1NC(=O)[C@H](CCCCN)NC(=O)[C@H]([C@@H](C)O)NC(=O)[C@H](Cc2ccccc2)NC(=O)[C@H]([C@@H](C)CC)NC(=O)[C@@H]2CCCN2C(=O)[C@@H](N)CSSC[C@@H](C(=O)NCC(=O)NCC(=O)N[C@@H](CCCNC(=N)N)C(=O)N[C@@H](CCCNC(=N)N)C(=O)N[C@@H](CCCCN)C(=O)N[C@@H](CCCCN)C(N)=O)NC(=O)[C@H]([C@@H](C)O)NC(=O)CNC(=O)[C@H](CCC(N)=O)NC1=O [SEQ ID No. 25] (H-CPIFTKIQGTCGGRRKK-NH2; disulfide 1-11)
[1]
  MIC: 12.5 to 25.0 µM

## GIINTLQKYYCRVRGGRCAVLSCLPKEEQIGKCSTRGRKCCRRKK (disulfide 11-40, 18-33, 23-41 (inferred)) [hBD3]
[2]; Cell Pre-treatment at 4°C, 1 uM
  Peptide inhibition: 53.5
[2]; Cell Pre-treatment at 4°C, 5 uM
  Peptide inhibition: 41
[2]; Cell Pre-treatment at 4°C, 10 uM
  Peptide inhibition: 27
[2]; Cell Pre-treatment at 4°C, 20 uM
  Peptide inhibition: 22
[2]; Cell Pre-treatment at 4°C, 50 uM
  Peptide inhibition: 18
[2]; Cell Pre-treatment at 4°C, 150 uM
  Peptide inhibition: 1
[2]; Cell Pre-treatment at 4°C, 1000 uM
  Peptide inhibition: 5
[2]; Co-treatment at 37°C, 1 uM
  Peptide inhibition: 79
[2]; Co-treatment at 37°C, 5 uM
  Peptide inhibition: 60
[2]; Co-treatment at 37°C, 10 uM
  Peptide inhibition: 43
[2]; Co-treatment at 37°C, 20 uM
  Peptide inhibition: 32
[2]; Co-treatment at 37°C, 50 uM
  Peptide inhibition: 17.5
[2]; Co-treatment at 37°C, 150 uM
  Peptide inhibition: 6.5
[2]; Co-treatment at 37°C, 1000 uM
  Peptide inhibition: 9
[2]; Virus Pre-treatment at 37°C, 1 uM
  Peptide inhibition: 64
[2]; Virus Pre-treatment at 37°C, 5 uM
  Peptide inhibition: 52
[2]; Virus Pre-treatment at 37°C, 10 uM
  Peptide inhibition: 33
[2]; Virus Pre-treatment at 37°C, 20 uM
  Peptide inhibition: 31
[2]; Virus Pre-treatment at 37°C, 50 uM
  Peptide inhibition: 20
[2]; Virus Pre-treatment at 37°C, 150 uM
  Peptide inhibition: 8.5
[2]; Virus Pre-treatment at 37°C, 1000 uM
  Peptide inhibition: 10
[2]; antiviral activity against HSV-1 on Vero cells
  pIC50: 5.00
[3]
  antiviral activity of oxidized versus reduced form: the same antiviral activity
[4]
  antibacterial effect: strong antibacterial effect
[5]
  antibacterial effect: strong antibacterial effect
[6]
  antibacterial effect: strong antibacterial effect

## hBD1: human β-defensin 1, wild-type reference peptide (DHYNCVSSGGQCLYSACPIFTKIQGTCYRGKAKCCK; ends and bridges not checked; cysteine pairing not given here; UniProt P60022 33-68, looked up)
[4]
  antibacterial effect: strong antibacterial effect
[5]
  antibacterial effect: strong antibacterial effect
[6]
  antibacterial effect: strong antibacterial effect
